Values quoted from earlier work in patent US7485688B2, “Water and oil producing composition” (priority 2004, dated 2009).

Test system: rats or mice
Details: acute oral toxicity in rats or mice

| SMILES | LD50 [mg/kg] |
| --- | --- |
| CC(=O)OC(C)(N=NC(C)(OC(C)=O)c1ccccc1)c1ccccc1 (centres unmarked) [1,1-azobis(1-acetoxy-1-phenylethane)] | ≥ 5000 |
| N#CC1(N=NC2(C#N)CCCCC2)CCCCC1 [1,1′-azobis(2-cyclohexane-1-carbonitrile)] | 11800 |
| CC(C)CC(C)(C#N)N=NC(C)(C#N)CC(C)C (centres unmarked) [2,2′-azobis(2,4-dimethylvaleronitrile)] | 6000 |
| CCC(C)(C#N)N=NC(C)(C#N)CC (centres unmarked) [2,2′-azobis-2-methylbutyronitrile] | 1316 |
| COC(=O)C(C)(C)N=NC(C)(C)C(=O)OC [dimethyl 2,2′-azobisisobutyrate] | 2369 |
